Reference: PubChem BioAssay (NCI)
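All cell lines were grown in 96-well plates and treated with compound for 48 hours. TGI denotes the concentration required for complete inhibition of growth.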

Assays:
Test in all cases: growth of human tumour cells (NCI), 48 h
CCRF-CEM leukemia = system: CCRF-CEM leukemia
MDA-N = system: MDA-N
SNB-19 CNS = system: SNB-19 CNS
SW-620 colon = system: SW-620 colon
NCI-H226 lung = system: NCI-H226 lung
NCI-H23 lung = system: NCI-H23 lung
KM12 colon = system: KM12 colon
786-0 renal = system: 786-0 renal
UACC-257 melanoma = system: UACC-257 melanoma
OVCAR-8 ovarian = system: OVCAR-8 ovarian
DU-145 prostate = system: DU-145 prostate
MCF7 breast = system: MCF7 breast
SN12C renal = system: SN12C renal
HOP-62 NSCLC = system: HOP-62 NSCLC
SF-295 CNS = system: SF-295 CNS
RXF 393 renal = system: RXF 393 renal
SNB-75 CNS = system: SNB-75 CNS
HCT-116 colon = system: HCT-116 colon
K-562 leukemia = system: K-562 leukemia
OVCAR-5 ovarian = system: OVCAR-5 ovarian
HOP-92 NSCLC = system: HOP-92 NSCLC
RPMI-8226 leukemia = system: RPMI-8226 leukemia
SF-268 CNS = system: SF-268 CNS
BT-549 breast = system: BT-549 breast
A549 NSCLC = system: A549 NSCLC
HCT-15 colon = system: HCT-15 colon
T-47D breast = system: T-47D breast
A498 renal = system: A498 renal
IGROV1 ovarian = system: IGROV1 ovarian
ACHN renal = system: ACHN renal
NCI-H460 lung = system: NCI-H460 lung
MOLT-4 leukemia = system: MOLT-4 leukemia
SK-MEL-2 melanoma = system: SK-MEL-2 melanoma
U251 CNS = system: U251 CNS
NCI/ADR-RES ovarian = system: NCI/ADR-RES ovarian
CAKI-1 renal = system: CAKI-1 renal
UACC-62 melanoma = system: UACC-62 melanoma
HL-60(TB) leukemia = system: HL-60(TB) leukemia
MDA-MB-435 = system: MDA-MB-435
M14 melanoma = system: M14 melanoma
COLO 205 colon = system: COLO 205 colon
OVCAR-4 ovarian = system: OVCAR-4 ovarian
HS 578T breast = system: HS 578T breast
UO-31 renal = system: UO-31 renal
SK-MEL-5 melanoma = system: SK-MEL-5 melanoma
SK-MEL-28 melanoma = system: SK-MEL-28 melanoma
TK-10 renal = system: TK-10 renal
SK-OV-3 ovarian = system: SK-OV-3 ovarian
SR leukemia = system: SR leukemia
HT29 colon = system: HT29 colon
SF-539 CNS = system: SF-539 CNS
EKVX NSCLC = system: EKVX NSCLC
MDA-MB-231 breast = system: MDA-MB-231 breast
PC-3 prostate = system: PC-3 prostate
LOX IMVI melanoma = system: LOX IMVI melanoma
MALME-3M melanoma = system: MALME-3M melanoma
OVCAR-3 ovarian = system: OVCAR-3 ovarian
NCI-H522 lung = system: NCI-H522 lung

## CN(C)CCCn1c2ccccc2c2cnccc21
CCRF-CEM leukemia
  TGI: > 100 µM
MDA-N
  TGI: > 100 µM
SNB-19 CNS
  TGI: > 100 µM
SW-620 colon
  TGI: > 100 µM
NCI-H226 lung
  TGI: 59.7 µM
NCI-H23 lung
  TGI: > 100 µM
KM12 colon
  TGI: > 100 µM
786-0 renal
  TGI: > 100 µM
UACC-257 melanoma
  TGI: 39.3 µM
OVCAR-8 ovarian
  TGI: > 100 µM
DU-145 prostate
  TGI: > 100 µM
MCF7 breast
  TGI: > 100 µM
SN12C renal
  TGI: 74.6 µM
HOP-62 NSCLC
  TGI: > 100 µM
SF-295 CNS
  TGI: > 100 µM
RXF 393 renal
  TGI: > 100 µM
SNB-75 CNS
  TGI: > 100 µM
HCT-116 colon
  TGI: > 100 µM
K-562 leukemia
  TGI: > 100 µM
OVCAR-5 ovarian
  TGI: > 100 µM
HOP-92 NSCLC
  TGI: > 100 µM
RPMI-8226 leukemia
  TGI: 71.6 µM
SF-268 CNS
  TGI: > 100 µM
BT-549 breast
  TGI: > 100 µM
A549 NSCLC
  TGI: > 100 µM
HCT-15 colon
  TGI: > 100 µM
T-47D breast
  TGI: > 100 µM
A498 renal
  TGI: > 100 µM
IGROV1 ovarian
  TGI: > 100 µM
ACHN renal
  TGI: > 100 µM
NCI-H460 lung
  TGI: 67 µM
MOLT-4 leukemia
  TGI: 83.9 µM
SK-MEL-2 melanoma
  TGI: > 100 µM
U251 CNS
  TGI: > 100 µM
NCI/ADR-RES ovarian
  TGI: > 100 µM
CAKI-1 renal
  TGI: > 100 µM
UACC-62 melanoma
  TGI: > 100 µM
HL-60(TB) leukemia
  TGI: 99.8 µM
MDA-MB-435
  TGI: > 100 µM
M14 melanoma
  TGI: 33 µM
COLO 205 colon
  TGI: 30.2 µM
OVCAR-4 ovarian
  TGI: > 100 µM
HS 578T breast
  TGI: > 100 µM
UO-31 renal
  TGI: 47.9 µM
SK-MEL-5 melanoma
  TGI: 42.5 µM
SK-MEL-28 melanoma
  TGI: > 100 µM
TK-10 renal
  TGI: 84.9 µM
SK-OV-3 ovarian
  TGI: > 100 µM
SR leukemia
  TGI: 43.4 µM
HT29 colon
  TGI: > 100 µM
SF-539 CNS
  TGI: 48.2 µM
EKVX NSCLC
  TGI: > 100 µM
MDA-MB-231 breast
  TGI: > 100 µM
PC-3 prostate
  TGI: > 100 µM
LOX IMVI melanoma
  TGI: 52.6 µM
MALME-3M melanoma
  TGI: 83.3 µM
OVCAR-3 ovarian
  TGI: > 100 µM
NCI-H522 lung
  TGI: > 100 µM
